Among the data in DBAASP are MIC values, retold here.

Among the test systems are Candida albicans; Pseudomonas aeruginosa; Staphylococcus aureus; Streptococcus agalactiae; Escherichia coli UB1005; Pseudomonas aeruginosa 9; Enterococcus faecalis; Escherichia coli W3110.
What all share (experiment): ≥ marks a high value that may be exact or a test limit, other limits are often not marked, values filed in µg/mL are converted to µM
For assay [1], the system named is Streptococcus gordonii DL1.
Assay [2] has as its system Streptococcus mutans UA159.
Assay [3] concerns Streptococcus mutans comD.
For assay [4], the system named is Streptococcus sanguinis NY101.
Assay [5] relates to Acinetobacter calcoaceticus.
Assay [6] deals with Enterococcus faecalis ATCC 29212.
For assay [7], the system named is Escherichia coli ATCC 25922.
Assay [8] relates to Pseudomonas aeruginosa ATCC 27853.
Assay [9] concerns Pseudomonas aeruginosa wt.
Assay [10] relates to Staphylococcus aureus ATCC 25923.
Assay [11] concerns Lactococcus lactis subsp. cremoris I116.
Assay [12] concerns Enterobacter cloacae 218R.
The test system of assay [13] is Enterococcus faecalis W61950.
For assay [14], the system named is Enterococcus faecium mic80.
Assay [15] relates to Enterococcus faecium t62764.
Assay [16] has as its system Escherichia coli ESBL 63103.
In assay [17] the test system is Escherichia coli ESBL 64771.
Assay [18] deals with Klebsiella pneumoniae ESBL 61962.
Assay [19] has as its system Klebsiella pneumoniae ESBL 63575.
Assay [20] relates to Pseudomonas aeruginosa 198.
Assay [21] concerns Pseudomonas aeruginosa H1027.
Assay [22] deals with Pseudomonas aeruginosa H1030.
For assay [23], the system named is Pseudomonas aeruginosa H103.
For assay [24], the system named is Pseudomonas aeruginosa PAO1 H103.
The subject of assay [25] is Salmonella enterica serovar Typhimurium.
For assay [26], the system named is Staphylococcus aureus C623.
The test system of assay [27] is Staphylococcus epidermidis.
In assay [28] the test system is Stenotrophomonas maltophilia ATCC 13637.
The test system of assay [29] is Escherichia coli PCM 2057.
Assay [30] deals with Micrococcus luteus ATCC 4698.
Assay [31] deals with Bacillus subtilis ATCC 6633.
For assay [32], the system named is Staphylococcus aureus FDA 209P.
The test system of assay [33] is Pseudomonas aeruginosa PAK.
The test system of assay [34] is Streptococcus gordonii Challis DL1.
The test system of assay [35] is Streptococcus mitis ATCC 903.
The subject of assay [36] is Streptococcus sobrinus ATCC 33478.

In brackets after ≈: the same amount, converted by molar mass.

By MIC is commonly meant the smallest concentration in the dilution series that meets the test's criterion for growth inhibition. Consider `NCCCC[C@H](NC(=O)[C@H](Cc1c[nH]c2ccccc12)NC(=O)[C@H](Cc1ccccc1)NC(=O)[C@H](CCCCN)NC(=O)[C@H](CCCCN)NC(=O)[C@@H](N)Cc1ccccc1)C(=O)N[C@@H](Cc1c[nH]c2ccccc12)C(=O)N[C@@H](Cc1ccccc1)C(=O)N[C@@H](CCCN=C(N)N)C(=O)N[C@@H](CCCN=C(N)N)C(=O)N[C@@H](Cc1ccccc1)C(=O)O` [FKKFWKWFRRF], for which the MIC is 20 µM (≈ 33.5 µg/mL) in assay [1], 7 µM (≈ 11.7 µg/mL) in assay [2], 6.5 µM (≈ 10.9 µg/mL) in assay [3] and no less than 40 µM in assay [4].

Consider `CC[C@H](C)[C@H](NC(=O)[C@H](C)NC(=O)[C@H](CO)NC(=O)[C@@H](NC(=O)[C@H](C)NC(=O)[C@H](CC(N)=O)NC(=O)[C@@H](NC(=O)[C@H](C)NC(=O)[C@H](Cc1cnc[nH]1)NC(=O)[C@@H]1CCCN1C(=O)[C@@H](NC(=O)[C@H](CC(C)C)NC(=O)[C@H](CO)NC(=O)[C@H](CC(C)C)NC(=O)[C@@H](N)Cc1ccccc1)[C@@H](C)CC)[C@@H](C)CC)C(C)C)C(=O)N[C@@H](C)C(=O)N[C@@H](CCCCN)C(=O)N[C@@H](Cc1cnc[nH]1)C(=O)N[C@@H](CC(N)=O)C(N)=O` [FLSLIPHAINAVSAIAKHN], for which the MIC in assay [5] was 7.9 µM (≈ 15.9 µg/mL); with Candida albicans, 7.9 µM (≈ 15.9 µg/mL); in [6], 4 µM (≈ 8.06 µg/mL); in assay [7], 7.9 µM (≈ 15.9 µg/mL); in assay [8] it was 4 µM (≈ 8.06 µg/mL); in [9] it was 3 µM (≈ 6.05 µg/mL). The MIC against Pseudomonas aeruginosa was 31.7 µM (≈ 63.9 µg/mL); in assay [10] it was 7.9 µM (≈ 15.9 µg/mL); in the assay on Staphylococcus aureus, 15.8 µM (≈ 31.8 µg/mL); with Streptococcus agalactiae, 3.9 µM (≈ 7.86 µg/mL).

`CC[C@H](C)[C@H](NC(=O)[C@H](CC(C)C)NC(=O)CNC(=O)CNC(=O)[C@@H](NC(=O)[C@H](CCCCN)NC(=O)CNC(=O)[C@H](CC(C)C)NC(=O)[C@@H](NC(=O)[C@H](CC(=O)O)NC(=O)[C@@H](NC(=O)[C@H](CC(C)C)NC(=O)CN)C(C)C)C(C)C)C(C)C)C(=O)N[C@@H](CCCCN)C(=O)N[C@@H](CCCCN)C(=O)N[C@@H](CC(C)C)C(=O)N[C@@H](CC(C)C)C(=O)N1CCC[C@H]1C(N)=O` [GLVDVLGKVGGLIKKLLP] had an MIC in assay [11] of no less than 32 µM.

Turning to `CC[C@H](C)[C@H](NC(=O)[C@@H](N)CCCCN)C(=O)N[C@@H](Cc1c[nH]c2ccccc12)C(=O)N[C@@H](Cc1c[nH]c2ccccc12)C(=O)N[C@@H](Cc1c[nH]c2ccccc12)C(=O)N[C@@H](Cc1c[nH]c2ccccc12)C(=O)N[C@@H](CCCN=C(N)N)C(=O)N[C@@H](CCCCN)C(=O)N[C@@H](CCCN=C(N)N)C(=O)O` [KIWWWWRKR], the MIC was 10.6 µM (≈ 15.3 µg/mL) against Candida albicans; no less than 45 µM in assay [12]; 11.8 µM (≈ 17 µg/mL) in assay [6]; no less than 45 µM in [13]; 2.84 µM (≈ 4.1 µg/mL) in assay [14]; 0.692 µM (≈ 1 µg/mL) in [15]. Moreover, the MIC in [16] is 5.75 µM (≈ 8.3 µg/mL); in assay [17], 2.84 µM (≈ 4.1 µg/mL); in the assay on Escherichia coli UB1005 it was 5.3 µM (≈ 7.66 µg/mL); in assay [18], no less than 90 µM; in assay [19], 22.1 µM (≈ 32 µg/mL); in assay [20] it was 11.8 µM (≈ 17 µg/mL). Further, the MIC against Pseudomonas aeruginosa 9 is 22.1 µM (≈ 32 µg/mL); in assay [21], 2.84 µM (≈ 4.1 µg/mL); in assay [22], 5.75 µM (≈ 8.3 µg/mL); in [23], no less than 42.3 µM; in [24] it was 2.84 µM (≈ 4.1 µg/mL); in [25] it was 10.6 µM (≈ 15.3 µg/mL). For the same molecule, the MIC in [10] turned out to be 2.84 µM (≈ 4.1 µg/mL); in assay [26], 2.84 µM (≈ 4.1 µg/mL); in [27], 1.3 µM (≈ 1.88 µg/mL); in [28], 1.45 µM (≈ 2.1 µg/mL).

Consider `CC[C@H](C)[C@H](NC(=O)[C@@H](NC(=O)[C@@H](N)CO)C(C)C)C(=O)NCC(=O)N[C@H]1CSSC[C@@H](C(=O)N[C@@H](Cc2ccccc2)C(=O)N[C@H](C(=O)N[C@@H](CCCCN)C(N)=O)C(C)C)NC(=O)[C@@H]2CCCN2C(=O)[C@H](CCCN=C(N)N)NC(=O)[C@@H]2CCCN2C(=O)[C@@H]2CCCN2C(=O)[C@H]([C@@H](C)CC)NC(=O)[C@H](CO)NC(=O)[C@H](CCCCN)NC(=O)[C@H]([C@@H](C)O)NC(=O)[C@H](Cc2c[nH]c3ccccc23)NC1=O` [SVIGCWTKSIPPRPCFVK], for which the MIC is no less than 495 µM in assay [29] and no less than 74.3 µM in assay [30].

With `CC[C@H](C)[C@H](NC(=O)[C@@H](N)C(C)C)C(=O)N[C@@H](CC(=O)O)C(=O)N[C@@H](CC(=O)O)C(=O)N[C@@H](CC(C)C)C(=O)N[C@@H](CCCCN)C(=O)N[C@@H](CCCCN)C(=O)N[C@H](C(=O)N[C@@H](C)C(=O)N[C@@H](CCCCN)C(=O)N[C@@H](CCCCN)C(=O)N[C@H](C(=O)N[C@@H](CCCN=C(N)N)C(=O)N[C@@H](CCCN=C(N)N)C(=O)N[C@@H](CCC(=O)O)C(=O)N[C@@H](CC(C)C)C(=O)N[C@@H](CC(C)C)C(=O)N[C@@H](CS)C(=O)N[C@@H](CCCCN)C(=O)N[C@@H](CCCCN)C(=O)N[C@@H](Cc1cnc[nH]1)C(=O)N[C@@H](Cc1cnc[nH]1)C(=O)N[C@@H](CCCCN)C(=O)N[C@@H](CCCCN)C(=O)N[C@@H](CC(C)C)C(=O)N[C@@H](CC(N)=O)C(=O)O)C(C)C)C(C)C` [VIDDLKKVAKKVRRELLCKKHHKKLN], the MIC in assay [31] was determined as 20.4 µM (≈ 64 µg/mL); in [32], 11.3 µM (≈ 35.5 µg/mL).

For the molecule `C[C@@H](O)[C@H](NC(=O)[C@H](CO)NC(=O)[C@H](Cc1c[nH]c2ccccc12)NC(=O)[C@H](Cc1c[nH]c2ccccc12)NC(=O)[C@H](CO)NC(=O)[C@H](Cc1cnc[nH]1)NC(=O)[C@H](Cc1c[nH]c2ccccc12)NC(=O)[C@@H](N)Cc1c[nH]c2ccccc12)C(=O)N[C@@H](Cc1c[nH]c2ccccc12)C(N)=O` [WWHSWWSTW], the MIC was no less than 91.8 µM with Enterococcus faecalis; no less than 91.8 µM with Escherichia coli W3110; no less than 91.8 µM in assay [33]; greater than 91.8 µM in the assay on Staphylococcus aureus; no less than 91.8 µM in assay [34]; no less than 91.8 µM in assay [35]. In addition, the MIC in [2], in assay [4] and in assay [36] was no less than 91.8 µM each time.
